In US10233180B2, “Substituted nitrogen-containing heterocyclic derivatives, pharmaceutical compositions comprising the same and applications of antitumor thereof” (ZHEJIANG UNIVERSITY, priority 2014, dated 2019):

What was measured:
Akt1 = molecular target: T1, Akt1 (Homo sapiens, UniProt P31749); assay: AKT1/PKBα KinEASE FP Fluorescein Green Assay (fluorescence polarization kinase kit); type: biochemical; conditions: 1 h reaction, read-out: Inhibitory activities against Akt1 (IC50)
T1 construct: purchased 32-021
Summary of the method: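 FP competition kinase assay: compounds (50 μM stock) with STK Substrate 3 and ATP, 1 h reaction at room temperature; stopped with stop/antibody mix, 4 h at room temperature, then polarization read. Inhibition derived from polarization values; IC50 calculated; triplicate wells.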

[1] = system: Human ovarian cancer cell strain OVCAR-8; assay: MTT assay, inhibition of tumor cell growth in vitro, 72 h; type: cell-based; conditions: Homo sapiens, OVCAR-8, MTT, read-out: Antitumor proliferative activities of tumor cell (IC50, μM) OVCAR-8
Summary of the method: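 OVCAR8 cells in RPMI 1640 plus FBS were seeded at 4000 cells/well and exposed for 72 h at 37 °C to compound at 50, 10, 2, 0.4 and 0.08 μM final, with 1% DMSO as blank. Inhibition was calculated from OD relative to control, and IC50 was derived by the Bliss method.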

[2] = system: human colon cancer cell strain HCT-116; assay: as above; type: cell-based; conditions: Homo sapiens, HCT-116, MTT, read-out: Antitumor proliferative activities of tumor cell (IC50, μM) HCT-116 (converted)
Summary of the method: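 Cells in RPMI 1640 with FBS, 4000 cells/well, exposed 72 h at 37 °C, 5% CO2 to final 50, 10, 2, 0.4 and 0.08 μM; 1% DMSO blank. MTT OD gives % inhibition versus control; IC50 derived by Bliss method.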

T1 sequence (P31749 whole entry): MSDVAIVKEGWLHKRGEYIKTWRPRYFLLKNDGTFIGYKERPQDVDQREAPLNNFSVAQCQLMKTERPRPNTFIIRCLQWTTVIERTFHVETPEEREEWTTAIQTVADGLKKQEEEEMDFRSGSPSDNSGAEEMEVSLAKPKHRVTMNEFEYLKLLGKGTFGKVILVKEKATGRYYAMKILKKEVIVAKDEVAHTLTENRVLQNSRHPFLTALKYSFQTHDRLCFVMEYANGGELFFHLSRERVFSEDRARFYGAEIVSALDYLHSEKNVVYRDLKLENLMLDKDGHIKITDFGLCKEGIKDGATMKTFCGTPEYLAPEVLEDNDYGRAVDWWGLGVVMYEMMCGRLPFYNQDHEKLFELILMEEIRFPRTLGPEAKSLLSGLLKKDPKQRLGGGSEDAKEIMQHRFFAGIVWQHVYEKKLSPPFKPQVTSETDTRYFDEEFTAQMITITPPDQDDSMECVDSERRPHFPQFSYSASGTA

SMILES	IC50 (Akt1) [nM]	IC50 [1] [µM]	IC50 [2] [µM]
Cc1[nH]c(C(=O)N[C@H]2CNCC[C@@H]2c2ccncc2)cc1-c1c(Br)cnn1C (racemic) [Compound 6, 5-methyl-4-(4-bromo-1-methyl-1H-pyrazol-5-yl)-N-(3,4-trans-4-(pyridin-4-yl)piperidin-3-yl)-1H-pyrrole-2-formamide]	32	3.68	10.8
CCc1c(-c2ncnn2C)c(Br)n(C)c1C(=O)N[C@H]1CNCC[C@@H]1c1cccc(C(F)(F)F)c1 (racemic) [Compound 4, 5-bromo-3-ethyl-1-methyl-4-(1-methyl-1H-1,2,4-triazol-5-yl)-N-(3,4-trans-4-(3-trifluoromethylphenyl)piperidin-3-yl)-1H-pyrrole-2-formamide]	48	5.19	15.6
Cn1ncc(Br)c1-c1coc(C(=O)N[C@H]2CNC[C@@H]2c2ccc(F)c(F)c2)c1 (racemic) [Compound 68, 4-(4-bromo-1-methyl-1H-pyrazol-5-yl)-N-(3,4-trans-4-(3,4-difluorophenyl)pyrrolidin-3-yl)furan-2-formamide]	679	4.19	2.84
Cn1ncc(Br)c1-c1csc(C(=O)N[C@H]2CNCC[C@@H]2c2ccc(Cl)cc2)c1 (racemic) [Compound 37, 4-(4-bromo-1-methyl-1H-pyrazol-5-yl)-N-(3,4-trans-4-(4-chlorphenyl)piperidin-3-yl)thiophene-2-formamide]	52	5.36	2.24
Cn1ncc(Br)c1-c1coc(C(=O)N[C@H]2CNCC[C@@H]2c2ccccc2)c1 (racemic) [Compound 22, 4-(4-bromo-1-methyl-1H-pyrazol-5-yl)-N-(3,4-trans-4-phenylpiperidin-3-yl) furan-2-formamide]	108	7.89	12.2
Cc1cnn(C)c1-c1cnc(C(=O)N[C@H]2CNCC[C@@H]2c2ccc(F)c(F)c2)cc1F (racemic) [Compound 46, 4-fluoro-5-(1,4-dimethyl-1H-pyrazol-5-yl)-N-(3,4-trans-4-(3,4-difluorophenyl)piperidin-3-yl)pyridinyl-2-formamide]	348	7.94	23.8
Cn1ncnc1-c1cc(C(=O)N[C@H]2CNCC[C@@H]2c2ccc(C(F)(F)F)cc2)oc1Br (racemic) [Compound 3, 5-bromo-4-(1-methyl-1H-1,2,4-triazol-5-yl)-N-(3,4-trans-4-(4-trifluoromethylphenyl)piperidin-3-yl)furan-2-formamide]	43	13	8.9
Cc1sc(C(=O)N[C@H]2CNCC[C@@H]2c2ccc(F)c(F)c2)cc1-c1c(Cl)cnn1C (racemic) [Compound 5, 5-methyl-4-(4-chloro-1-methyl-1H-pyrazol-5-yl)-N-(3,4-trans-4-(3,4-difluorophenyl)piperidin-3-yl)thiophene-2-formamide]	121	14.3	6.8

Compounds with a lower IC50 (Akt1), results first:

IC50 (Akt1) [nM]	IC50 [1] [µM]	IC50 [2] [µM]	SMILES
18	0.98	2.9	Cn1ncc(Cl)c1-c1coc(C(=O)N[C@H]2CNCC[C@@H]2c2ccc(C(F)(F)F)cc2)c1 (racemic) [Compound 24, 4-(4-chloro-1-methyl-1H-pyrazol-5-yl)-N-(3,4-trans-4-(4-trifluoromethylphenyl)piperidin-3-yl)furan-2-formamide]
18	3.68	2.81	Cn1nccc1-c1ccc(C(=O)N[C@@H]2CNCC[C@H]2c2ccc(F)c(F)c2)cc1 [Compound 77, N-((3S,4S)-4-(3,4-difluorophenyl)piperidin-3-yl)-4-(1-methyl-1H-pyrazol-5-yl)benzamide]
17	0.98	0.95	Cn1ncc(Cl)c1-c1cnc(C(=O)N[C@@H]2CNCC[C@H]2c2ccc(Cl)c(C(F)(F)F)c2)cc1Cl [Compound 95, 4-chloro-5-(4-chloro-1-methyl-1H-pyrazol-5-yl)-N-((3S,4S)-4-(4-chloro-3-(trifluoromethyl)phenyl)piperidin-3-yl)picolinamide]
16	1.15	1.56	Cn1ncc(Cl)c1-c1ccc(C(=O)N[C@@H]2CNCC[C@H]2c2ccc(F)c(F)c2)cc1F [Compound 82, 4-(4-chloro-1-methyl-1H-pyrazol-5-yl)-N-((3S,4S)-4-(3,4-difluorophenyl)piperidin-3-yl)-3-fluorobenzamide]
6	0.76	2.03	Cn1ncc(Cl)c1-c1ccc(C(=O)N[C@@H]2CNCC[C@H]2c2ccc(F)c(F)c2)cc1Cl [Compound 78, 3-chloro-4-(4-chloro-1-methyl-1H-pyrazol-5-yl)-N-((3S,4S)-4-(3,4-difluorophenyl)piperidin-3-yl)benzamide]
1	3.68	5.01	Cn1ncc(Cl)c1-c1cc(C(=O)N[C@@H]2CNC(CC(=O)O)C[C@H]2c2ccc(Cl)c(Cl)c2)oc1Cl (stereo partly drawn) [Compound 116, 2-((4S,5S)-5-(5-chloro-4-(4-chloro-1-methyl-1H-pyrazol-5-yl)furan-2-formamide)-4-(3,4-dichlorophenyl)piperidin-2-yl)acetic acid]
1	6.67	1.1	Cn1ncc(-c2ccncc2)c1-c1ccc(C(=O)N[C@@H]2CNCC[C@H]2c2cccc(F)c2)s1 [Compound 140, N-((3S, 4S)-4-(3-fluorophenyl)piperidin-3-yl)-5-(1-methyl-4-(pyridinyl-4-yl)-1H-pyrazol-5-yl)thiophene-2-formamide]
0.3	0.67	0.89	Cn1ncc(Cl)c1-c1cc(C(=O)N[C@@H]2CNC(CCNS(C)(=O)=O)C[C@H]2c2ccc(F)c(F)c2)oc1Cl (stereo partly drawn) [Compound 127, 5-chloro-4-(4-chloro-1-methyl-1H-pyrazol-5-yl)-N-((3S,4S)-4-(3,4-difluorophenyl)-6-(2-(methylsulfonamido)ethyl)piperidin-3-yl)furan-2-formamide]
